We go through 21 molecules from US12595230B2, “Substituted 6,7-dihydro-5H-benzo[7]annulene compounds and their derivatives, processes for their preparation and therapeutic uses thereof” (Sanofi, priority 2020, dated 2026).

The structures appear in SMILES notation.

In the assay the target is T1, ERα (Homo sapiens, UniProt P03372).
T1 construct: host or cells: MCF7
T1 sequence (P03372 1-595): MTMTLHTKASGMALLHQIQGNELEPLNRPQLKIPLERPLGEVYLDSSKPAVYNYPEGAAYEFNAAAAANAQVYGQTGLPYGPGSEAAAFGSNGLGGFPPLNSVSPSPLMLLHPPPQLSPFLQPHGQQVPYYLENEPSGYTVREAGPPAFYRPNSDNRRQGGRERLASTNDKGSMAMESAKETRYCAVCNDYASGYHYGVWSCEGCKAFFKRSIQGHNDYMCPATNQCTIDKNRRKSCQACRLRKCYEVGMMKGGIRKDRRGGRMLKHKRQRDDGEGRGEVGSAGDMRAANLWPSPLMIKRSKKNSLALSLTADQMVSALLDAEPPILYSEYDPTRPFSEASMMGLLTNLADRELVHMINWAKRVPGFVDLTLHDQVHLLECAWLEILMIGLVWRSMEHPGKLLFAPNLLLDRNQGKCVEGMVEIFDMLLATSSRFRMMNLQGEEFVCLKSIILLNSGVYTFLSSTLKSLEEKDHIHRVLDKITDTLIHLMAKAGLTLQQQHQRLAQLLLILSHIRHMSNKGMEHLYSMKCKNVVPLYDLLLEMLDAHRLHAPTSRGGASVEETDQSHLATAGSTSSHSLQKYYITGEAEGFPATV
Kind of assay: Estrogen receptor degradation activity: breast cancer cell ERα in cell western assay (MCF7 cells). The assay is classed as cell-based. Particulars: for % Degradation At 0.3 μM: 4 hours, relative to fulvestrant 0.1 μM positive control; for DC50: 4 hours post compound addition, concentration which degrades 50% of the estrogen receptor, read-out: Degradation IC50. In short, it runs like this: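 Compounds were applied to MCF7 cells in stripped-serum, phenol red-free medium for 4 h at final 0.3–0.0000018 μM, with fulvestrant (0.1 μM) as control. Value: IC50 (nM) for 50% ERα degradation.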

For the molecule `CCC1CCc2cc(C(=O)O)ccc2C(c2ccc(CC3CN(CCCF)C3)cc2)=C1c1ccc(Cl)cc1` (single isomer, unassigned) [Example 330, 8-(4-chlorophenyl)-7-ethyl-9-(4-((1-(3-fluoropropyl)azetidin-3-yl)methyl)phenyl)-6,7-dihydro-5H-benzo[7]annulene-3-carboxylic acid], the “% Degradation At 0.3 μM” value came out at 91% and the DC50 was determined as 7 nM.

For `Cc1cc(Cl)ccc1C1=C(c2ccc(CC3CN(CCCF)C3)cc2)c2ccc(C(=O)O)cc2OCC1` [Example 263, 4-(4-chloro-2-methylphenyl)-5-(4-((1-(3-fluoropropyl)azetidin-3-yl)methyl)phenyl)-2,3-dihydrobenzo[b]oxepine-8-carboxylic acid], the “% Degradation At 0.3 μM” value is recorded as 90% and the DC50 turned out to be 0.8 nM.

On to `Cc1cc(C(F)(F)F)ccc1C1=C(c2ccc(CC3CN(CCCF)C3)cc2)c2ccc(C(=O)O)cc2CCC1` [Example 17, 9-(4-((1-(3-fluoropropyl)azetidin-3-yl)methyl)phenyl)-8-(2-methyl-4-(trifluoromethyl)phenyl)-6,7-dihydro-5H-benzo[7]annulene-3-carboxylic acid], for which the “% Degradation At 0.3 μM” value worked out at 90% and the DC50 worked out at 0.3 nM.

Take `O=C(O)c1ccc2c(c1)CCCC(c1ccc(Cl)cc1Cl)=C2c1ccc(CC2(F)CN(CCCF)C2)cc1` [Example 46, 8-(2,4-dichlorophenyl)-9-(4-((3-fluoro-1-(3-fluoropropyl)azetidin-3-yl)methyl)phenyl)-6,7-dihydro-5H-benzo[7]annulene-3-carboxylic acid]: the “% Degradation At 0.3 μM” value is 88% and the DC50 is 0.6 nM.

As to `COc1ccc(C2=C(c3ccc(CC4CN(CCCF)C4)cc3)c3ccc(C(=O)O)cc3CCC2)c(Cl)c1` [Example 24, 8-(2-chloro-4-methoxyphenyl)-9-(4-((1-(3-fluoropropyl)azetidin-3-yl)methyl)phenyl)-6,7-dihydro-5H-benzo[7]annulene-3-carboxylic acid], the “% Degradation At 0.3 μM” value was 92% and the DC50 worked out at 0.4 nM.

As for `O=C(O)c1ccc2c(c1)CCCC(c1cccc(CC(F)F)c1)=C2c1ccc(CC2CN(CCCF)C2)cc1` [Example 297, 8-(3-(2,2-difluoroethyl)phenyl)-9-(4-((1-(3-fluoropropyl)azetidin-3-yl)methyl)phenyl)-6,7-dihydro-5H-benzo[7]annulene-3-carboxylic acid], the “% Degradation At 0.3 μM” value amounted to 81% and the DC50 was 0.7 nM.

With `O=C(O)c1ccc2c(c1Cl)CCCC(c1ccc(Cl)cc1Cl)=C2c1ccc(CC2CN(CCCF)C2)cc1` [Example 247, 4-chloro-8-(2,4-dichlorophenyl)-9-(4-((1-(3-fluoropropyl)azetidin-3-yl)methyl)phenyl)-6,7-dihydro-5H-benzo[7]annulene-3-carboxylic acid], the “% Degradation At 0.3 μM” value stood at 97% and the DC50 came to 1.8 nM.

Consider `O=C(O)c1ccc2c(c1)CCCC(c1ccc(F)cc1C(F)(F)F)=C2c1ccc(CC2CN(CCC(F)F)C2)cc1` [Example 276, 9-(4-((1-(3,3-difluoropropyl)azetidin-3-yl)methyl)phenyl)-8-(4-fluoro-2-(trifluoromethyl)phenyl)-6,7-dihydro-5H-benzo[7]annulene-3-carboxylic acid], for which the “% Degradation At 0.3 μM” value turned out to be 85% and the DC50 is 0.4 nM.

For `CCOC(c1ccc(C2=C(c3ccc(Cl)cc3Cl)CCCc3cc(C(=O)O)ccc32)cc1)C1CN(CCCF)C1` (single isomer, unassigned; isomer 1) [Example 229, 8-(2,4-dichlorophenyl)-9-(4-(ethoxy(1-(3-fluoropropyl)azetidin-3-yl)methyl)phenyl)-6,7-dihydro-5H-benzo[7]annulene-3-carboxylic Acid Isomer 1], the “% Degradation At 0.3 μM” value was 77% and the DC50 was found to be 0.6 nM.

With `Cl.O=C(O)c1ccc2c(c1)CCCC(c1ccc(Cl)cc1Cl)=C2c1ccc(CC2CN(CCCF)C2)cc1F` [Example 47, 8-(2,4-dichlorophenyl)-9-(2-fluoro-4-((1-(3-fluoropropyl)azetidin-3-yl)methyl)phenyl)-6,7-dihydro-5H-benzo[7]annulene-3-carboxylic acid], the “% Degradation At 0.3 μM” value turned out to be 93% and the DC50 was determined as 0.4 nM.

In the case of `O=C(O)c1ccc2c(c1)CCCC(c1ccc(F)cc1Cl)=C2c1ccc(CC2(F)CN(CCCF)C2)cc1` [Example 242, 8-(2-chloro-4-fluorophenyl)-9-(4-((3-fluoro-1-(3-fluoropropyl)azetidin-3-yl)methyl)phenyl)-6,7-dihydro-5H-benzo[7]annulene-3-carboxylic acid], the “% Degradation At 0.3 μM” value stood at 78% and the DC50 was 1.7 nM.

With `CCC1CCc2cc(C(=O)O)ccc2C(c2ccc(CC3CN(CCCF)C3)cc2)=C1c1ccc(Cl)cc1` (racemic) [Example 315, 8-(4-chlorophenyl)-7-ethyl-9-(4-((1-(3-fluoropropyl)azetidin-3-yl)methyl)phenyl)-6,7-dihydro-5H-benzo[7]annulene-3-carboxylic acid], the “% Degradation At 0.3 μM” value was found to be 87% and the DC50 amounted to 1 nM.

Consider `Cl.O=C(O)c1ccc2c(c1)CCCC(c1ccc(F)cc1Cl)=C2c1ccc(CC2CN(CCCF)C2)cc1` [Example 8, 8-(2-chloro-4-fluorophenyl)-9-(4-((1-(3-fluoropropyl)azetidin-3-yl)methyl)phenyl)-6,7-dihydro-5H-benzo[7]annulene-3-carboxylic acid], for which the “% Degradation At 0.3 μM” value was found to be 92% and the DC50 is 0.4 nM.

For `O=C(O)c1ccc2c(c1)CCCC(c1cnccc1C(F)(F)F)=C2c1ccc(CC2CN(CCCF)C2)cc1` [Example 214, 9-(4-((1-(3-fluoropropyl)azetidin-3-yl)methyl)phenyl)-8-(4-(trifluoromethyl)pyridin-3-yl)-6,7-dihydro-5H-benzo[7]annulene-3-carboxylic acid], the “% Degradation At 0.3 μM” value is 86% and the DC50 amounted to 2.8 nM.

Consider `CC(C)C1CCc2cc(C(=O)O)ccc2C(c2ccc(CC3CN(CCCF)C3)cc2)=C1c1ccc(Cl)cc1` (racemic) [Example 317, 8-(4-chlorophenyl)-9-(4-((1-(3-fluoropropyl)azetidin-3-yl)methyl)phenyl)-7-isopropyl-6,7-dihydro-5H-benzo[7]annulene-3-carboxylic acid], for which the “% Degradation At 0.3 μM” value was 87% and the DC50 came out at 1.6 nM.

With `Cl.O=C(O)c1ccc2c(c1)CCCC(c1ccc(F)c3c1CCC3)=C2c1ccc(CC2CN(CCCF)C2)cc1` [Example 55, 8-(7-fluoro-2,3-dihydro-1H-inden-4-yl)-9-(4-((1-(3-fluoropropyl)azetidin-3-yl)methyl)phenyl)-6,7-dihydro-5H-benzo[7]annulene-3-carboxylic acid hydrochloride], the “% Degradation At 0.3 μM” value amounted to 93% and the DC50 came out at 0.5 nM.

For `O=C(O)c1ccc2c(c1)CCCC(c1cccc(CC(F)(F)F)c1)=C2c1ccc(CC2CN(CCCF)C2)cc1` [Example 298, 9-(4-((1-(3-fluoropropyl)azetidin-3-yl)methyl)phenyl)-8-(3-(2,2,2-trifluoroethyl)phenyl)-6,7-dihydro-5H-benzo[7]annulene-3-carboxylic acid], the “% Degradation At 0.3 μM” value turned out to be 82% and the DC50 stood at 0.5 nM.

With `COC(c1ccc(C2=C(c3ccc(Cl)cc3Cl)CCCc3cc(C(=O)O)ccc32)cc1)C1CN(CCCF)C1` (single isomer, unassigned; isomer 2) [Example 228, 8-(2,4-dichlorophenyl)-9-(4-((1-(3-fluoropropyl)azetidin-3-yl)(methoxy)methyl)phenyl)-6,7-dihydro-5H-benzo[7]annulene-3-carboxylic Acid Isomer 2], the “% Degradation At 0.3 μM” value was determined as 76% and the DC50 was found to be 0.6 nM.

Turning to `O=C(O)c1ccc2c(c1)CCCC(c1ccc(Cl)cc1C(F)(F)F)=C2c1ccc(CC2CN(CCCF)C2)cc1` [Example 27, 8-(4-chloro-2-(trifluoromethyl)phenyl)-9-(4-((1-(3-fluoropropyl)azetidin-3-yl)methyl)phenyl)-6,7-dihydro-5H-benzo[7]annulene-3-carboxylic acid], the “% Degradation At 0.3 μM” value was found to be 94% and the DC50 amounted to 0.5 nM.

Take `N#Cc1c(C(=O)O)ccc2c1CCCC(c1ccc(Cl)cc1Cl)=C2c1ccc(CC2CN(CCCF)C2)cc1.O=CO` [Example 246, 4-cyano-8-(2,4-dichlorophenyl)-9-(4-((1-(3-fluoropropyl)azetidin-3-yl)methyl)phenyl)-6,7-dihydro-5H-benzo[7]annulene-3-carboxylic acid, formic acid]: the “% Degradation At 0.3 μM” value is listed as 73% and the DC50 stood at 31.6 nM.

For `CC(C)C1CCc2cc(C(=O)O)ccc2C(c2ccc(CC3CN(CCCF)C3)cc2)=C1c1ccc(Cl)cc1Cl` (single isomer, unassigned) [Example 321, 8-(2,4-dichlorophenyl)-9-(4-((1-(3-fluoropropyl)azetidin-3-yl)methyl)phenyl)-7-isopropyl-6,7-dihydro-5H-benzo[7]annulene-3-carboxylic acid], the “% Degradation At 0.3 μM” value is listed as 88% and the DC50 was found to be 0.5 nM.
